Assay: gradient 5% acetonitrile 3 min, to 50% in 2 min, to 85% in 15 min, held 3 min, 100 µL/min
Conditions: column: Zorbax Extend-C18 2.1 x 50 mm; eluents: water / acetonitrile, 0.1% formic acid
In short: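 Data were gathered over 3 months by HPLC coupled to a quadrupole time-of-flight mass spectrometer, operated in positive and negative ionization mode. Mixtures of ~100 pure standards ran on a Zorbax Extend-C18 column (2.1 × 50 mm, 1.8 μm) at 100 μL/min, with water and acetonitrile each containing 0.1% formic acid and dead and dwell volumes of 40 μL and 900 μL. Retention time was read from adduct peaks picked by computer and checked manually.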

| Compound | RP-LC retention time [s] |
| --- | --- |
| CCN(C(=O)C1CCCN1S(=O)(=O)c1cc2c(cc1C)NC(=O)CO2)c1cccc(C)c1 (centres undefined) | 818 |
| Cc1cc(Cl)ccc1S(=O)(=O)N1CC(c2nc(-c3ccncc3)no2)C1 | 931 |
| COc1cc(C)c(C)cc1S(=O)(=O)Nc1ccc(Cl)c(N2CCCS2(=O)=O)c1 | 1080 |
| COc1ccc(-c2c(C)noc2NC(C)=O)cc1S(=O)(=O)Nc1ccc2c(c1)OCCO2 | 707 |
| Cc1ccc(-c2cc3c4nnc(CCC(=O)N5CCN(C6CCCCC6)CC5)n4ccn3n2)cc1C | 682 |
| Cc1ccc(-c2noc(C3CCCN3S(=O)(=O)c3c(C)cc(C)cc3C)n2)cc1 (centres undefined) | 1330 |
| Cc1cccc(-c2ncccc2CNS(=O)(=O)c2ccc(Cl)cc2)c1 | 778 |
| Cc1ccccc1-n1nc2c(c1NC(=O)CSCc1ccccc1)CSC2 | 907 |
| Cc1ccc(C2=NC3(CCN(C(=O)c4ccc5ccccc5n4)CC3)ON2)cc1 | 809 |
| COc1ccc(-c2nc3sc(C(=O)N(C)C)c(C)n3c2NC(C)(C)C)cc1 | 742 |
| COCCCNc1c(-c2ccc(F)cc2)nc2sc(C(=O)N3CCOCC3)c(C)n12 | 741 |
| CCc1cccc(NC(=O)Cn2c(N3CCCC3)nc(C)cc2=O)c1 | 682 |
| C[C@H]1CCCC(=O)CCC/C=C/c2c(O)cc(O)cc2C(=O)O1 | 888 |
| O=C1NCCCCCCN(C(=O)Nc2ccc3c(c2)OCCO3)[C@H]2CCC[C@@H]12 | 749 |
| CC(C)c1ccc(-c2c(N3CCN(c4ccccn4)CC3)c(=O)c2=O)cc1 | 756 |
| FC(F)(F)Oc1ccc(CN2CCN(c3cnn4cnnc4c3)CC2)cc1 | 611 |
| CC1CCCCN1CCNS(=O)(=O)c1ccccc1-c1nc(-c2cccc(F)c2)no1 (centres undefined) | 746 |
| Cc1cccc(NC(=O)Nc2ccc3nnc(C)n3c2)c1 | 747 |
| CC(C)c1ccc(Nc2c(-c3ccc(O)cc3)nc3ncccn23)cc1 | 713 |
| CCc1ccc(N2C(=O)C3N=NN(Cc4nc(-c5ccc(Br)cc5)no4)C3C2=O)cc1 (centres undefined) | 1130 |
| Cc1cccc(NC(=O)N2CCc3[nH]cnc3C2c2ccncc2)c1 (centres undefined) | 557 |
| CC(C)(C)c1ccc2oc(CN3CCN(C(=O)NCc4ccccc4)CC3)nc2c1 | 842 |
| Cc1nnc2c(=O)n(CC(=O)NCCN3CCc4ccccc4C3)c3cccnc3n12 | 738 |

| Compound | RP-LC retention time [s] |
| --- | --- |
| COc1ccccc1NC(=O)c1[nH]c2cc(C)sc2c1CN(C)C | 678 |
| COc1ccc(C(=O)Nc2nc(-c3ccccc3)cs2)cc1 | 1040 |
| COc1ccc(NC(=O)c2cnc(N3CCN(c4ccccc4F)CC3)nc2N)cc1 | 684 |
| COc1ccccc1-c1nc(-c2cn(-c3cccc(Cl)c3)nn2)no1 | 1050 |
| CC1=C(c2ccccc2)S(=O)(=O)N=C1N1CCC(NC(=O)COc2ccccc2)CC1 | 841 |
| O=C(Cc1csc(-c2ccccc2)n1)Nc1nc(-c2cccc(Br)c2)cs1 | 1270 |
| Cc1cccc(OCC(=O)N2CC(CN(C)C)C3(CCOCC3)C2)c1 (centres undefined) | 598 |
| O=C(NC1CCN(Cc2ccccc2)CC1)c1ccc2c(=O)n3c(nc2c1)CCCC3 | 579 |
| CCc1nc(-c2ccc(-c3noc(COc4ccc(OC)cc4)n3)cc2)cs1 | 1270 |
| O=C(CSc1nccc(N2CCC(Cc3ccccc3)CC2)n1)NCCCc1ccccc1 | 906 |
| COc1ccc(CCNC(=O)CCn2c(=O)sc3ccccc32)cc1OC | 698 |
| O=C1CC(c2noc(-c3cc(F)cc(F)c3)n2)CN1c1ccc(F)cc1 (centres undefined) | 944 |
| CCCNC(=O)N1[C@H]2CC[C@@H]1c1cnc(-c3ccc(F)cc3)nc1C2 | 829 |
| COc1cc(-c2nc3ncccn3c2Nc2ccccc2)ccc1O | 633 |
| Cc1ccc(C)c(NS(=O)(=O)c2cc(-c3nc(C(C)(C)C)cs3)cs2)c1 | 1310 |
| O=C(c1ccccc1OCC1CCCN(C2CCC2)C1)N1CCCC1 (centres undefined) | 615 |
| Cc1cc(C)c(NC(=O)C2CCCN(S(=O)(=O)c3cc(-c4noc(C)n4)cs3)C2)c(C)c1 (centres undefined) | 1110 |
| O=C(CSc1nnnn1-c1ccccc1)Nc1ncc(Cc2ccccc2Cl)s1 | 946 |
| Cc1ccc(F)cc1-n1cc(C(=O)O)c2ccccc2c1=O | 791 |
| CCCNC(=O)C1CC(=O)N(CCc2c[nH]c3ccc(F)cc23)C1 (centres undefined) | 684 |
| NC(=O)Cc1cccc(C(=O)c2ccccc2)c1N | 734 |
| NC(=O)c1ccc2c(c1)S(=O)(=O)c1ccccc1C2=O | 727 |
| CCOc1ccc2ncc(C#N)c(NCc3ccc(OC)c(OC)c3)c2c1 | 663 |

| Compound | RP-LC retention time [s] |
| --- | --- |
| Cn1cnnc1SCC(=O)N1CCCc2ccccc21 | 636 |
| COc1ccc(-c2nnc(Cc3nc(-c4cccc(Cl)c4)no3)o2)cc1 | 1020 |
| COc1cccc(Oc2nccnc2N2CCC(C(=O)NCCC3=CCCCC3)CC2)c1 | 1050 |
| COc1ccc(Cl)cc1NC(=O)c1cc(C2CC2)n2nccc2n1 | 1210 |
| COCCn1c(CCCC(=O)NCc2cccnc2)nc2cccnc21 | 534 |
| O=C(CCn1nnc2cc(-c3noc(Cc4ccc(F)cc4)n3)ccc21)N1CCCC1 | 860 |
| CC(C)c1ccc(S(=O)(=O)NCc2ccsc2)cc1 | 954 |
| Fc1ccc(-c2nc(-c3ccc(-n4cccn4)nc3)no2)cc1 | 1230 |
| COc1ccc(C(=O)N2CCC3(CC2)N=C(c2cccc(Br)c2)NO3)cc1F | 901 |
| CCOc1cc(C(=O)Nc2c(-c3ccc(F)cc3)nc3cc(C)ccn23)cc(OCC)c1OCC | 819 |
| CC(C)c1ccc(N2C(=O)C3N=NN(Cc4nc(-c5ccccc5Cl)no4)C3C2=O)cc1 (centres undefined) | 1100 |
| Cc1ccn2c(Nc3ccccc3C)c(-c3cccc(Cl)c3)nc2c1 | 890 |
| Cn1cc(S(=O)(=O)N2CCCCC2)cc1C(=O)N1CCCCC1 | 833 |
| Cc1ccc(F)cc1NS(=O)(=O)c1cc2n(c1)CCCNC2=O | 671 |
| CCCNC(=O)C1CCCN(c2nc3ncn(CC(=O)NC4CCCC4)c(=O)c3s2)C1 (centres undefined) | 641 |
| CCn1c(=O)c(N2CCN(C(=O)NCCc3ccccc3)CC2)nc2ccccc21 | 902 |
| COc1ccc(-c2nc(Cn3ccn4nc(-c5ccc(OC)c(OC)c5)cc4c3=O)c(C)o2)cc1 | 968 |
| COC(=O)c1ncn2c1C(=O)N(c1ccc(C)cc1)C(C)(C(=O)NCc1ccccc1)C2 (centres undefined) | 692 |
| COC[C@@H]1CN(S(=O)(=O)c2ccc(C(C)C)cc2)C[C@H]1c1ccccn1 | 895 |
| Cc1ccc(-c2nnc(SCc3noc(CCC(=O)Nc4ccc(F)c(Cl)c4)n3)o2)cc1 | 1020 |
| CCc1ccc(NC(=O)Cn2ncc3c(c2=O)N(C2CC2)C(=O)CS3)cc1 | 797 |
| Cc1noc(C)c1S(=O)(=O)N1CCC(OCCOCc2ccccc2)CC1 | 1020 |
| CN1CCCC1c1nc(C2CN(C(=O)Cn3c(=O)oc4ccccc43)C2)no1 (centres undefined) | 582 |

| Compound | RP-LC retention time [s] |
| --- | --- |
| O=C(NCc1nc(-c2ccc(-c3csc(C4CC4)n3)cc2)no1)c1ccco1 | 830 |
| COc1cc(C(=O)NCC(c2cccs2)N2CCOCC2)c([N+](=O)[O-])cc1OC (centres undefined) | 565 |
| CC(C)NC(=O)c1ccc(Cn2cncn2)cc1 | 597 |
| Cc1noc(C)c1CC(=O)N1CCc2nn(CC3CC3)c(=O)n2CC1 | 626 |
| COCCNC(=O)c1cc(-c2ccncc2)cn1Cc1ccc(C)cc1 | 640 |
| O=C(Cc1ccsc1)NC1CCc2nnc(C3CC3)n2CC1 (centres undefined) | 594 |
| COc1ccc2c(c1OC)C(=O)N1N=C(c3ccc(-c4ccccc4)cc3)CC21 (centres undefined) | 927 |
| COc1ccc(N2C(=O)c3cc(C)nn3CC2(C)C(=O)NCc2ccc(F)cc2)cc1 (centres undefined) | 770 |
| COc1ccccc1CC1C(=O)Nc2ccc(Cl)cc21 (centres undefined) | 948 |
| CCOc1ccc(CC(=O)N2C[C@@H]3C[C@H]2C[C@@H]3NS(=O)(=O)c2cccs2)cc1 | 791 |
| COc1ccc(S(=O)(=O)N2CC=C(c3cn(C(C)C)c4ncccc34)CC2)cc1 | 1070 |
| Cc1nc(-c2cccc(-c3noc(-c4cncc(Br)c4)n3)c2)cs1 | 1230 |
| CC(C)(Oc1ccc(Cl)cc1)C(=O)N1CCN(C(=O)C2CC2c2cccs2)CC1 (centres undefined) | 1020 |
| CCCCOc1ccc(CNC(=O)CSc2nccnc2Oc2ccccc2)cc1 | 1130 |
| O=C(c1cccc(Br)c1)N1CCN(c2cc(-c3ccc(F)cc3)[nH]n2)CC1 | 864 |
| Cc1nn(C(C)C(=O)NCCCN(C)C2CCCCC2)c(=O)c2c(C)n(-c3ccccc3)nc12 (centres undefined) | 675 |
| Cc1cc(C)cc(C(=O)NC(Cc2ccccc2)c2nnc(N3CCSCC3)o2)c1 (centres undefined) | 918 |
| CCOc1cc(=O)n2c(c1C(=O)N1CCCCCC1)CCCCC2 | 703 |
| CCN1CCN(c2nc3cc(C(=O)OC)ccc3c(=O)n2-c2cccc(Cl)c2)CC1 | 665 |
| O=C(NCCCN1CCCC1)c1ccc(CS(=O)Cc2ccccc2Cl)o1 (centres undefined) | 548 |

Source: the METLIN SMRT retention time set (Domingo-Almenara et al. 2019)
